# Measurements taken from patent publication US20100120690A1, “Polypeptides Having Antimicrobial Activity and Polynucleotides Encoding Same” (Novozymes Adenium Biotech A/S, priority 2005, published 2010).
# System: Staphylococcus carnosus ATCC51365
# Experiment: Yeast screening assay: radial diffusion assay of yeast supernatants
# Assay type: cell-based
# Parameters: key: An activity of 3 is better than Plectasin; An activity of 2 corresponds to the activity of Plectasin; 1 is worse than Plectasin
# Details: yeast supernatant, clearing zone in radial diffusion assay
# Description: A range of antimicrobial polypeptides, which are variants of SEQ ID NO: 1 (Plectasin), were tested for antimicrobial activity by expressing them in S. cerevisae and screening the supernatant of the yeast transformants for antimicrobial activity against Staphylococcus carnosus ATCC51365.
# Radial Diffusion Assay was carried out as described in Methods in Molecular Biology, Vol. 78, Antibacterial peptide protocol, William M. Shafer, Human Press.
# 200-300 yeast transformant colonies were plated on 14 cm round plates containing 25 mL SC growth medium supplemented with 1.5% galactose, 0.5% glucose and 1.5% agarose. Plates were incubated for three hours at room temperature, overlaid with 25 mL of the same growth medium and allowed to grow for three days at 30° C. Then the plates were overlaid with 25 mL of LB growth medium containing 1.5% agarose and 10^5 cells of the indicator strain Staphylococcus carnosus and incubated at 30° C. overnight to allow growth of the bacterial cells. Next day, the plates were stained with 1.5 mM MTT to facilitate visualization of the clearing zones.
# Yeast colonies creating clearing zones were transferred to microtiter plates containing 200 micro-L of SC growth medium supplemented with 2% glucose and ampicillin (100 mg/L). Such plates designated “master plates” were incubated for 2 days at 30° C. with shaking at 450 rpm to allow yeast growth.
# 10 micro-L SC growth medium from each well of the master plates were transferred to new microtiter plates containing 200 micro-L SC growth medium with 1.5% galactose and 0.5% glucose. These plates were called daughter plates and were incubated for 3 days at 30° C. under 450 rpm shaking to allow yeast growth and peptide synthesis.
# Finally a Radial Diffusion Assay (RDA) was performed following the protocol described in Methods in Molecular Biology to analyse and quantify the antimicrobial activity of the yeast supernatants against S. carnosus.
# Briefly, 30 mL of minimal underlay medium containing 1% agarose and 5×10^5 cfu/mL of S. carnosus was poured in an omnitray plate (Nunc, 242811). A Nunc TSP plate (#445497) was inserted immediately on the plate to allow a 96 well pattern formation. Once the media had solidified, the TSP plate was removed and 10 micro-L of yeast supernatant samples were applied on the holes. Plates were incubated 3 hours at 37° C. and overlaid with 15 mL of LB agar growth medium. Finally, plates were incubated overnight at 37° C. and coloured with 1.5 mM MTT to visualize the clearing zones.
# Inspection and measurements of the clearing zones was performed on the plates. The corresponding yeast clones resulting in clearing zones of similar or increased size than the clones encoding for wild type plectasin were picked from the master plates and transferred to agar plates containing SC growth medium with 2% glucose and ampicillin (100 mg/L). Such plates were incubated for further 2 days at 30° C. to allow yeast growth. Subsequently, colony PCR was performed followed by sequence analysis to identify amino acid changes in the plectasin sequence.
# An activity of 2 corresponds to the activity of Plectasin. An activity of 3 is better than Plectasin, and 1 is worse than Plectasin.
row,Substance,Activity (antimicrobial activity relative to the activity of plectasin)
1,GFGCNGPWDEDDMQCHNHCKSIKGYKGGACAKGGFVCKCY [Mutation Y29A],2
2,GFGCNGPWDEDDMVCHNHCKSIKGYKGGYCAKGGFVCKCY [Mutation Q14V],2
3,GFGCNGPWDEDDMKCHNHCKSIKGYKGGYCAKGGFVCKCY [Mutation Q14K],2
4,GFGCNGPWDEDDMQCHNHCKSIKGYKGGYCAKGHFVCKCY [Mutation G34H],2
5,GWGCNGPWDEDDMQCHNHCKSIKGYKGGYCAKGGFVCKCY [Mutation F2W],2
6,GFGCQGPWDEDDMQCHNHCKSIKGYKGGYCAKGGFVCKCY [Mutation N5Q],3
7,GFGCNGPWDEDDMQCHNHCKSIKGYKGGYCAKGGMVCKCY [Mutation F35M],2
8,GFGCNGPRDEDDMQCHNHCKSIKGYKGGYCAKGGFVCKCY [Mutation W8R],3
9,GFGCNGPWDEDDMHCHNHCKSIKGYKGGYCAKGGFVCKCY [Mutation Q14H],3
10,GFGCNGVWDEDDMQCHNHCKSIKGYKGGYCAKGGFVCKCY [Mutation P7V],2
11,GFGCNGPWDEDDMQCHNHCKSIKGSKGGYCAKGGFVCKCY [Mutation Y25S],2
12,GFGCNGPWTEDDMQCHNHCKSIKGYKGGYCAKGGFVCKCY [Mutation D9T],3
13,GFGCNGPWDEDDMQCHNHCKSIKYYKGGYCAKGGFVCKCY [Mutation G24Y],2
14,GFGCNGPWDEDDMQCHNHCKSIKGYKGGYCSKGGFVCKCY [Mutation A31S],2
15,GFGCNGPWDENDMQCHNHCKSIKGYKGGYCAKGGFICKCY [D11N + V36I],3
16,GFGCNGPWDEDPMQCHNHCKSIKGYKGGYCAKGGFVCKCY [Mutation D12P],2
17,GLGCNGPWDEDDMQCHNHCKSIKGYKGGYCAKGGFVCKCY [Mutation F2L],2
18,GFGCNGPWCEDDMQCHNHCKSIKGYKGGYCAKGGFVCKCY [Mutation D9C],2
19,GFGCNGPWDESDMQCHNHCKSIKGYKGGYCAKGGFVCKCY [Mutation D11S],3
20,GFGCNGPWDEDDYQCHNHCKSIKGYKGGYCAKGGFVCKCY [Mutation M13Y],2
21,GFGCNGPWDEDDMQCHNHCKSIKGYKGGYCAKGGFMCKCY [Mutation V36M],3
22,GFGCNGPWDEDDMQCHNHCKSVKGYKGGYCAKGGFVCKCY [Mutation I22V],3

row,Substance,Activity (antimicrobial activity relative to the activity of plectasin)
1,GFGCNKPWDEDDMQCHNHCKSIKGYKGGYCAKGGFVCKCY [Mutation G6K],2
2,GFGCNGAWDEDDMQCHNHCKSIKGYKGGYCAKGGFVCKCY [Mutation P7A],2
3,GFGCNGPWDQDDMQCHNHCKSIKGYKGGYCAKGGFVCKCY [Mutation E10Q],2
4,GFGCNGPWDEGDMQCHSHCKSIKGYKGGYCAKGGFVCKCY [D11G + N17S],3
5,GFGCNGPWDGDDMRCHNHCKSIKGYKGGYCAKGGFVCKCY [E10G + Q14R],3
6,GFGCNGPWDEDDMQCHNHCKSIKGYKGGYCAKGGFRCKCY [Mutation V36R],2
7,GFGCNGPWDEDDMQCHNHCKSLKGYKGGYCAKGGFVCKCY [Mutation I22L],3
8,GFGCNGPWDEDDMQCHNHCKSIKGYKGGLCAKGGFVCKCY [Mutation Y29L],2
9,GFGCNGPWDEDDMQCHNTCKSIKGYKGGYCAKGGFVCKCY [Mutation H18T],2
10,GFGCNGPWDADDMQCHNHCKSIKGYKGGYCAKGGFVCKCY [Mutation E10A],2
11,GFGCNAPWDEDDMQCHNHCKSIKGYKGGYCAKGGFVCKCY [Mutation G6A],2
12,GFGCNGPWDEDDMQCHNHCKSIKGYKGGYCAKGGWVCKCY [Mutation F35W],2
13,GFGCNGPWDEDDMQCHNHCKSIKSYKGGYCAKGGFVCKCY [Mutation G24S],2
14,GFGCNGPWDEDDMQCHNHCKSIKGYKGGYCAKGGFVCRCY [Mutation K38R],2
15,GFGCNGLWDEDDMQCHNHCKSIKGYKGGYCAKGGFVCKCY [Mutation P7L],2
16,GFGCNGPWDEYDMQCHNHCKSIKGYKGGYCAKGGFVCKCY [Mutation D11Y],3
17,GFGCNGPWDEDDMQCHNHCKSIKGYTGGYCAKGGFVCKCY [Mutation K26T],2
18,GFGCNGPWDEDDMQCHNHCKSIKNYKGGYCAKGGFVCKCY [Mutation G24N],3
19,GFGCNGPWDEDDMQCHNHCKSIKGNKGGYCAKGGFVCKCY [Mutation Y25N],2
20,GFGCNGPWDEDDMQCHNHCKSIKGKKGGYCAKGGFVCKCY [Mutation Y25K],2
21,GFGCNGPWDEDDMQCHNHCKSIKGYKGGMCAKGGFVCKCY [Mutation Y29M],2
22,GFGCNGPWDEDDMYCHNHCKSIKGYKGGYCAKGGFVCKCY [Mutation Q14Y],3

# System: panel of 6 different strains of Staphylococcus aureus
# Experiment: Average MIC, NCCLS/CLSI guidelines using caMHB (Example 6)
# Assay type: cell-based
# Details: average over 6 S. aureus strains, duplicate; MIC above 32 counted as 64; read after 18-24 hours at 37° C.
# Description: A large number of antimicrobial peptides of the invention were tested against a panel of 6 different strains of Staphylococcus aureus listed below:
# Staphylococcus aureus, ATCC29213, MSSA, NCCLS reference strain; Staphylococcus aureus, ATCC25923, MSSA, NCCLS reference strain; Staphylococcus aureus, ATCC29737, MSSA; Staphylococcus aureus, E33235, MSSA; Staphylococcus aureus, 698-01, MRSA ST5, Str, Kan, Oxa; Staphylococcus aureus, 566-03, MRSA ST80, Oxa, Tet, Fus, Kan.
# The staphylococci were exposed to the following peptide concentrations: 32; 16; 8; 4; 2; 1; 0.5; 0.25; 0.13; […]; and 0.03 microgram/mL. All peptides were purified, HPLC quantified and the concentrated peptides (>160 micrograms/mL) were diluted to 160 micrograms/mL in peptide dilution buffer (0.1% BSA, 0.01% Acetic Acid).
# The MIC determination was done essentially as described by NCCLS/CLSI guidelines using caMHB. The MICs were read after 18-24 hours of 37° C. incubations and recorded along with the CFU in the table below.
# A total number of 95 antimicrobial peptides of the invention were evaluated in duplicate against the 6 bacterial strains described above.
# In the majority of the double determinations (93%), the MIC varied <2 fold. An average MIC is tabulated below. If the MIC was above 32 micrograms/mL, a value of 64 was used to calculate the average.
row,Substance,Average MIC
1,"D11G + N17I: antimicrobial peptide of the invention, Plectasin variant (GFGCNGPWDEGDMQCHIHCKSIKGYKGGYCAKGGFVCKCY)",16 micrograms/mL
2,"N17S: antimicrobial peptide of the invention, Plectasin variant (GFGCNGPWDEDDMQCHSHCKSIKGYKGGYCAKGGFVCKCY) [Mutation N17S]",14 micrograms/mL
3,"N17R + Y25R: antimicrobial peptide of the invention, Plectasin variant (GFGCNGPWDEDDMQCHRHCKSIKGRKGGYCAKGGFVCKCY)",18 micrograms/mL
4,"N17K + K32R: antimicrobial peptide of the invention, Plectasin variant (GFGCNGPWDEDDMQCHKHCKSIKGYKGGYCARGGFVCKCY)",7 micrograms/mL
5,"S21N: antimicrobial peptide of the invention, Plectasin variant (GFGCNGPWDEDDMQCHNHCKNIKGYKGGYCAKGGFVCKCY) [Mutation S21N]",11 micrograms/mL
